{"source": "patent US7432095B2", "about": "“Formate dehydrogenase tolerant to halogen compounds and process for producing the same” (Kaneka Corporation, priority 2001, dated 2008)", "molecules": {"B1": {"name": "FDH derived from KNK65MA: Haloketone-tolerant NAD-dependent formate dehydrogenase from Thiobacillus sp. KNK65MA, amino acid sequence SEQ ID NO:1 (protein, listed as Thiobacillus sp.)", "chain": "MAKILCVLYDDPVDGYPKTYARDDLPKIDHYPGGQTLPTPKAIDFTPGQLLGSVSGELGLRKYLEANGHTFVVTSDKDGPDSVFEKELVDADVVISQPFWPAYLTPERIAKAKNLKLALTAGIGSDHVDLQSAIDRGITVAEVTYCNSISVAEHVVMMILGLVRNYIPSHDWARKGGWNIADCVEHSYDLEGMTVGSVAAGRIGLAVLRRLAPFDVKLHYTDRHRLPEAVEKELGLVWHDTREDMYPHCDVVTLNVPLHPETEHMINDETLKLFKRGAYIVNTARGKLADRDAIVRAIESGQLAGYAGDVWFPQPAPKDHPWRTMKWEGMTPHISGTSLSAQARYAAGTREILECFFEGRPIRDEYLIVQGGALAGTGAHSYSKGNATGGSEEAAKFKKAG"}}, "key": {"Candida boidinii FDH": {"biological_target": "T1, Candida boidinii FDH (Candida boidinii, UniProt O13437)", "T1 sequence (O13437 1-364)": "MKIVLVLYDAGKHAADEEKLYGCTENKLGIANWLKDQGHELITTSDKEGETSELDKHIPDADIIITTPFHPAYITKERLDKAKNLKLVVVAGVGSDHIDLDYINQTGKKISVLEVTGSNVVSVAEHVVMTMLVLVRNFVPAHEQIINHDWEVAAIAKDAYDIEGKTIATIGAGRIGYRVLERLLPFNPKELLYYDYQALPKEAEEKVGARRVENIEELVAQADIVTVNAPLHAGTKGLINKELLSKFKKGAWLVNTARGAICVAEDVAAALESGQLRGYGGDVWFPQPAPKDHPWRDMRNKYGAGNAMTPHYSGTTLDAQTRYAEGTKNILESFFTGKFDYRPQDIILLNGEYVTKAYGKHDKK", "test": "biochemical"}, "[1]": {"system": "KNK65MA FDH (formate dehydrogenase)", "test": "Haloketone tolerance: residual FDH activity of cell-free extract after standing with haloketone", "assay_type": "biochemical, Thiobacillus sp. KNK65MA", "conditions": "30° C."}, "[2]": {"system": "FDH derived from the KNK607 strain", "test": "Haloketone tolerance: residual FDH activity of cell-free extract after standing with haloketone", "assay_type": "biochemical", "conditions": "30° C."}, "[3]": {"test": "Formate dehydrogenase activity assay (NADH formation, absorbance at 340 nm) of the purified enzyme", "assay_type": "biochemical, Thiobacillus sp. KNK65MA", "conditions": "for Specific activity: 0.1 M phosphate buffer pH 7, 500 mM sodium formate, 5 mM NAD", "procedure": "In the present invention, the formate dehydrogenase activity of the polypeptide is assayed by quantitating the increase in absorbance at 340 nm resulting from the production of NADH at 30° C. or 40° C. in a 0.1 M phosphate buffer (pH 7) containing 500 mM sodium formate and 5 mM NAD.\nThe molecular weight determination is by gel permeation chromatography. The Km value for formate is determined by measuring the activity under the above conditions of activity assay (30° C., NAD 5 mM) while the concentration of sodium formate is varied, and the Km value for NAD is determined under the above conditions of activity assay (30° C., sodium formate 500 mM) while the concentration of NAD is varied. […]\nThe activity of the formate dehydrogenase obtained was assayed by quantitating the increase in absorbance at 340 nm resulting from formation of NADH in 0.1 M phosphate buffer (pH 7) containing 500 mM sodium formate and 5 mM NAD at 30° C. or 40° C. In this connection, the amount of the enzyme yielding […] of NADH in 1 minute was defined as 1 unit. Protein assay was performed by the method of Lowry using BSA as standard protein. The specific activity of the purified formate dehydrogenase was 7.6 u/mg protein (30° C.) or 13.3 μ/mg protein (40° C.)\nThe Km values for formate and NAD were determined as follows. Thus, the Km value for formate was determined by measuring the activity with the concentration of sodium formate varied under the above specific activity assay conditions (30° C., NAD 5 mM) and the Km value for NAD was determined by measuring the activity with the concentration of NAD varied under the above specific activity assay conditions (30° C., sodium formate 500 mM). In FIG. 3 and FIG. 4, V represents the reaction velocity of the enzyme, S represents the concentration of the substrate, and the intercept of the abscissa represents −1/Km. […]"}, "[4]": {"system": "ethyl 4-chloroacetoacetate reduction system (NAD regeneration)", "test": "Coenzyme regeneration in the enzymatic reduction system of ethyl 4-chloroacetoacetate", "assay_type": "biochemical", "conditions": "6 g ethyl 4-chloroacetoacetate in 60 ml, butyl acetate/water, pH 6.5, 30° C., 3.5 hours, reductase from HB101 (pNTS1M1)", "procedure": "Escherichia coli HB101 (pFT002) expressing the KNK65MA-derived FDH as acquired in Example 7 and Escherichia coli HB101 (pFA002) expressing KNK607-derived FDH (WO 02/46427) were respectively inoculated into 60 ml of the liquid medium shown in Table 5 sterilized in a 500 ml Sakaguchi flask and shake-cultured at 37° C. for 9 hours. The resulting culture medium was inoculated into 100 ml of the liquid medium shown in Table 5 sterilized in a 500 ml Sakaguchi flask in size of 1% and shake-cultured at 37° C. for 46 hours. The resulting culture medium was centrifugally concentrated 5-fold and sonicated to give an FDH enzyme solution. On the other hand, for use as the reductase enzyme for reducing a 4-haloacetoacetate, the recombinant Escherichia coli HB101 (pNTS1M1)(FERM BP-8059) was inoculated into 100 ml of the medium shown in Table 5 sterilized in a 500 ml Sakaguchi flask, shake-cultured at 37° C. for 23 hours, and concentrated 10-fold and the cells were disrupted. […] After completion of the reaction, the reaction mixture was extracted with butyl acetate and the extract was analyzed. […]\nThe quantitation of ethyl 4-chloro-3-hydroxybutyrate was carried out by gas chromatography. […]"}, "[5]": {"conditions": "Candida boidinii FDH extract, haloketone 20 mM added 1:1, 30° C., 5 hours, untreated extract = 100%, read-out: Residual FDH activity (%)"}, "[6]": {"conditions": "KNK65MA FDH extract, haloketone 20 mM added 1:1, 5 hours, untreated extract = 100%"}, "[7]": {"conditions": "KNK607 FDH extract, haloketone 20 mM added 1:1, 5 hours, untreated extract = 100%"}, "[8]": {"conditions": "[…], haloketone 20 mM added 1:1, 30° C., 5 hours, […], read-out: Residual FDH activity (%)"}, "[9]": {"conditions": "[…], haloketone 20 mM added 1:1, 5 hours, […]"}, "[10]": {"conditions": "[…], haloketone 20 mM added 1:1, 28.5 hours, […]"}}, "note": "Like-named read-outs stand apart in the source and are kept apart here."}
{"molecule": "CC(C)(C)OC(=O)N[C@@H](Cc1ccccc1)C(=O)CCl", "note": "[1,1-dimethylethyl [(1S)-3-chloro-2-oxo-1-(phenylmethyl)propyl]carbamate]", "values": [{"measurement": "remaining activity at 2000 µM", "setting": "Candida boidinii FDH; Candida boidinii FDH extract, haloketone 2 mM added 1:1, 30° C., 5 hours, untreated extract = 100%, read-out: Residual FDH activity (%)", "value": 31.3, "unit": "%"}, {"measurement": "Residual FDH activity (%)", "setting": "[1]; KNK65MA FDH extract, haloketone 2 mM added 1:1, 5 hours, untreated extract = 100%", "value": 100.0, "unit": "%"}, {"measurement": "Residual FDH activity (%)", "setting": "[2]; KNK607 FDH extract, haloketone 2 mM added 1:1, 5 hours, untreated extract = 100%", "value": 81.6, "unit": "%"}]}
{"molecule": "O=C(CCl)COC(=O)c1ccccc1", "note": "[1-(Benzoyloxy)-3-chloro-2-propanone, 1-(benzoyloxy)-3-chloro-2-propanone]", "values": [{"measurement": "remaining activity at 10000 µM", "setting": "Candida boidinii FDH; Candida boidinii FDH extract, haloketone 10 mM added 1:1, 30° C., 5 hours, untreated extract = 100%, read-out: Residual FDH activity (%)", "value": 4.5, "unit": "%"}, {"measurement": "Residual FDH activity (%)", "setting": "[1]; KNK65MA FDH extract, haloketone 10 mM added 1:1, 5 hours, untreated extract = 100%", "value": 100.7, "unit": "%"}, {"measurement": "Residual FDH activity (%)", "setting": "[2]; KNK607 FDH extract, haloketone 10 mM added 1:1, 5 hours, untreated extract = 100%", "value": 1.6, "unit": "%"}]}
{"molecule": "O=C(CO)CCl", "note": "[1-Chloro-3-hydroxy-2-propanone, 1-chloro-3-hydroxy-2-propanone]", "values": [{"measurement": "remaining activity at 20000 µM", "setting": "Candida boidinii FDH; [5]", "value": 14.7, "unit": "%"}, {"measurement": "Residual FDH activity (%)", "setting": "[1]; [6]", "value": 80.1, "unit": "%"}, {"measurement": "Residual FDH activity (%)", "setting": "[2]; [7]", "value": 11.7, "unit": "%"}]}
{"molecule": "O=C(CCl)c1cccc(Cl)c1", "note": "[2,3′-Dichloroacetophenone, 2,3′-dichloroacetophenone]", "values": [{"measurement": "remaining activity at 20000 µM", "setting": "Candida boidinii FDH; [8]", "value": 7.4, "unit": "%"}, {"measurement": "Residual FDH activity (%)", "setting": "[1]; [9]", "value": 97.9, "unit": "%"}, {"measurement": "Residual FDH activity (%)", "setting": "[2]; [9]", "value": 27.0, "unit": "%"}]}
{"molecule": "O=C(CCl)c1cccnc1", "note": "[2-Chloro-1-(3-pyridinyl)ethanone, 2-chloro-1-(3-pyridinyl)ethanone]", "values": [{"measurement": "remaining activity at 20000 µM", "setting": "Candida boidinii FDH; [8]", "value": 1.5, "unit": "%"}, {"measurement": "Residual FDH activity (%)", "setting": "[1]; [9]", "value": 90.1, "unit": "%"}, {"measurement": "Residual FDH activity (%)", "setting": "[2]; [9]", "value": 6.1, "unit": "%"}]}
{"molecule": "O=C(CCl)c1ccccc1", "note": "[2-Chloroacetophenone, 2-chloroacetophenone]", "values": [{"measurement": "remaining activity at 20000 µM", "setting": "Candida boidinii FDH; 28.5 h, read-out: Residual FDH activity (%)", "value": 29.4, "unit": "%"}, {"measurement": "Residual FDH activity (%)", "setting": "[1]; [10]", "value": 100.7, "unit": "%"}, {"measurement": "Residual FDH activity (%)", "setting": "[2]; [10]", "value": 100.0, "unit": "%"}]}
{"molecule": "CCOC(=O)C(Cl)C(C)=O", "note": "(centres unmarked) [Ethyl2-chloroacetoacetate, ethyl 2-chloroacetoacetate]", "values": [{"measurement": "remaining activity at 20000 µM", "setting": "Candida boidinii FDH; [8]", "value": 5.4, "unit": "%"}, {"measurement": "Residual FDH activity (%)", "setting": "[1]; [9]", "value": 100.0, "unit": "%"}, {"measurement": "Residual FDH activity (%)", "setting": "[2]; [9]", "value": 2.5, "unit": "%"}]}
{"molecule": "CCOC(=O)CC(=O)CBr", "note": "[Ethyl4-bromoacetoacetate, ethyl 4-bromoacetoacetate]", "values": [{"measurement": "remaining activity at 20000 µM", "setting": "Candida boidinii FDH; [5]", "value": 0, "unit": "%"}, {"measurement": "Residual FDH activity (%)", "setting": "[1]; [6]", "value": 24.1, "unit": "%"}, {"measurement": "Residual FDH activity (%)", "setting": "[2]; [7]", "value": 0.0, "unit": "%"}]}
{"molecule": "CCOC(=O)CC(=O)CCl", "note": "[Ethyl4-chloroacetoacetate, ethyl 4-chloroacetoacetate]", "values": [{"measurement": "remaining activity at 20000 µM", "setting": "Candida boidinii FDH; [8]", "value": 14.3, "unit": "%"}, {"measurement": "Residual FDH activity (%)", "setting": "[1]; [9]", "value": 100.7, "unit": "%"}, {"measurement": "Residual FDH activity (%)", "setting": "[2]; [9]", "value": 20.1, "unit": "%"}]}
{"molecule": "CCOC(=O)CC(=O)CI", "note": "[Ethyl4-iodoacetoacetate, ethyl 4-iodoacetoacetate]", "values": [{"measurement": "remaining activity at 20000 µM", "setting": "Candida boidinii FDH; [5]", "value": 0, "unit": "%"}, {"measurement": "Residual FDH activity (%)", "setting": "[1]; [6]", "value": 12.1, "unit": "%"}, {"measurement": "Residual FDH activity (%)", "setting": "[2]; [7]", "value": 0.0, "unit": "%"}]}
{"molecule": "COC(=O)CC(=O)CCl", "note": "[Methyl4-chloroacetoacetate, methyl 4-chloroacetoacetate]", "values": [{"measurement": "remaining activity at 20000 µM", "setting": "Candida boidinii FDH; [8]", "value": 14.9, "unit": "%"}, {"measurement": "Residual FDH activity (%)", "setting": "[1]; [9]", "value": 100.0, "unit": "%"}, {"measurement": "Residual FDH activity (%)", "setting": "[2]; [9]", "value": 13.1, "unit": "%"}]}
{"molecule": "chloroacetone", "values": [{"measurement": "Residual FDH activity (%)", "setting": "Candida boidinii FDH; 30° C., 5 hours", "value": 38.2, "unit": "%"}, {"measurement": "Residual FDH activity (%)", "setting": "[1]; 5 hours", "value": 100.0, "unit": "%"}, {"measurement": "Residual FDH activity (%)", "setting": "[2]; 5 hours", "value": 46.2, "unit": "%"}]}
{"molecule": "B1", "values": [{"measurement": "Km", "setting": "[3]; 30° C., NAD 5 mM, sodium formate varied, read-out: Km value for formate", "value": 1600, "unit": "µM"}, {"measurement": "Km", "setting": "[3]; 30° C., sodium formate 500 mM, NAD varied, read-out: Km value for NAD", "value": 48, "unit": "µM"}, {"measurement": "Specific activity", "setting": "[3]; 30° C.", "value": 7.6, "unit": "u/mg protein"}, {"measurement": "Specific activity", "setting": "[3]; 40° C.", "value": 13.3, "unit": "μ/mg protein"}, {"measurement": "Conversion rate to ethyl 4-chloro-3-hydroxybutyrate", "setting": "[4]", "value": 100, "unit": "%"}]}
